# Experimental data: US20240158418A1 (C4 Therapeutics, Inc., priority 2021, published 2024)
# Read-outs that look alike come from different tables or passages of the source.
# Assays:
# Assay type in all cases: cell-based
# [1] = molecular target: EGFR L858R (Homo sapiens, UniProt P00533, L858R); assay: EGFR degradation, Total EGFR (L858R-specific) HTRF, NCI-H3255; set-up: NCI-H3255 (harboring EGFR heterozygous L858R mutation); host or cells: NCI-H3255; details: NCI-H3255 cells, 6 hours, Total EGFR HTRF, read-out: H3255 EGFR DC50
# Chain of EGFR L858R (P00533 25-1210 L858R): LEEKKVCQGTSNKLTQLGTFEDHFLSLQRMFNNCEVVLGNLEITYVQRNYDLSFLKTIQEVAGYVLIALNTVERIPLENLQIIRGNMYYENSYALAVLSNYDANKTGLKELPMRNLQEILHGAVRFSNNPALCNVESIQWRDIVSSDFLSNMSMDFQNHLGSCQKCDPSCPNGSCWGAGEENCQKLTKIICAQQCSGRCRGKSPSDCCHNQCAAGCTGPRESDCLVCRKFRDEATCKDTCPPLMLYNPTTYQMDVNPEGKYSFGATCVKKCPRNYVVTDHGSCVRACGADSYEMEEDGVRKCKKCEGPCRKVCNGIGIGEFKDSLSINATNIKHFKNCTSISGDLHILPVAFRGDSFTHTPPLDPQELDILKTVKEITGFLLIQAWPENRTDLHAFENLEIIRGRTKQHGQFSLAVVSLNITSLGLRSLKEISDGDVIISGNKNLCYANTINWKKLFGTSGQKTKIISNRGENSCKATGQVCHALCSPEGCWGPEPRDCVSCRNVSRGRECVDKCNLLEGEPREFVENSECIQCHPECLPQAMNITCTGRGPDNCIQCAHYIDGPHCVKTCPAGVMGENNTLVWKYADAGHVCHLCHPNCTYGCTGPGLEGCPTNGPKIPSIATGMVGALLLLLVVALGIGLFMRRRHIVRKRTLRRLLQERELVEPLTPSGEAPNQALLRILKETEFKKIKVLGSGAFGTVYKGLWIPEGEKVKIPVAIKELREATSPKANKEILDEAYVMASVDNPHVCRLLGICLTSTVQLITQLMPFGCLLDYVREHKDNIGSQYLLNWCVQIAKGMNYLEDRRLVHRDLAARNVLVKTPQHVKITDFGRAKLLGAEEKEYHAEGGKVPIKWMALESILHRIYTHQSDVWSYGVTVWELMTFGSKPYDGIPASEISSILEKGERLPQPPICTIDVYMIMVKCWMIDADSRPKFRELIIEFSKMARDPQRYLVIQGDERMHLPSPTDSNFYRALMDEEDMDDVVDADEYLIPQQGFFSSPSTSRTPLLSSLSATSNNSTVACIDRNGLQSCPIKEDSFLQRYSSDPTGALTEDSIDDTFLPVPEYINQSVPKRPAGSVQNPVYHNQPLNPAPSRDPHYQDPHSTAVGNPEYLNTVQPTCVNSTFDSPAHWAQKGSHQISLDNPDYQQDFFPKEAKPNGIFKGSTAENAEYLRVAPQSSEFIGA
# In short: (§1)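 FRET signal from HTRF kits measured phospho-EGFR at pY1068 or total EGFR after 6 h treatment at 37 °C. Compounds ran as 11-point half-log dilutions from 10 μM in duplicate, in cells in phenol red-free RPMI with 10% FBS. Concentrations giving 50% inhibition or degradation were reported as IC50 or DC50.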
# [2] = molecular target: T1, EGFR L858R-T790M-C797S (Homo sapiens, UniProt P00533, C797S/L858R/T790M); assay: EGFR degradation, Total EGFR (L858R-specific) HTRF, NCI-H1975+CS; details: 6 hours, Total EGFR HTRF
# T1 construct: generated using CRISPR technology to introduce the additional C797S mutation by Horizon Discovery; host or cells: NCI-H1975+CS (CRISPR knock-in of C797S)
# T1 sequence (P00533 25-1210 T790M/C797S/L858R): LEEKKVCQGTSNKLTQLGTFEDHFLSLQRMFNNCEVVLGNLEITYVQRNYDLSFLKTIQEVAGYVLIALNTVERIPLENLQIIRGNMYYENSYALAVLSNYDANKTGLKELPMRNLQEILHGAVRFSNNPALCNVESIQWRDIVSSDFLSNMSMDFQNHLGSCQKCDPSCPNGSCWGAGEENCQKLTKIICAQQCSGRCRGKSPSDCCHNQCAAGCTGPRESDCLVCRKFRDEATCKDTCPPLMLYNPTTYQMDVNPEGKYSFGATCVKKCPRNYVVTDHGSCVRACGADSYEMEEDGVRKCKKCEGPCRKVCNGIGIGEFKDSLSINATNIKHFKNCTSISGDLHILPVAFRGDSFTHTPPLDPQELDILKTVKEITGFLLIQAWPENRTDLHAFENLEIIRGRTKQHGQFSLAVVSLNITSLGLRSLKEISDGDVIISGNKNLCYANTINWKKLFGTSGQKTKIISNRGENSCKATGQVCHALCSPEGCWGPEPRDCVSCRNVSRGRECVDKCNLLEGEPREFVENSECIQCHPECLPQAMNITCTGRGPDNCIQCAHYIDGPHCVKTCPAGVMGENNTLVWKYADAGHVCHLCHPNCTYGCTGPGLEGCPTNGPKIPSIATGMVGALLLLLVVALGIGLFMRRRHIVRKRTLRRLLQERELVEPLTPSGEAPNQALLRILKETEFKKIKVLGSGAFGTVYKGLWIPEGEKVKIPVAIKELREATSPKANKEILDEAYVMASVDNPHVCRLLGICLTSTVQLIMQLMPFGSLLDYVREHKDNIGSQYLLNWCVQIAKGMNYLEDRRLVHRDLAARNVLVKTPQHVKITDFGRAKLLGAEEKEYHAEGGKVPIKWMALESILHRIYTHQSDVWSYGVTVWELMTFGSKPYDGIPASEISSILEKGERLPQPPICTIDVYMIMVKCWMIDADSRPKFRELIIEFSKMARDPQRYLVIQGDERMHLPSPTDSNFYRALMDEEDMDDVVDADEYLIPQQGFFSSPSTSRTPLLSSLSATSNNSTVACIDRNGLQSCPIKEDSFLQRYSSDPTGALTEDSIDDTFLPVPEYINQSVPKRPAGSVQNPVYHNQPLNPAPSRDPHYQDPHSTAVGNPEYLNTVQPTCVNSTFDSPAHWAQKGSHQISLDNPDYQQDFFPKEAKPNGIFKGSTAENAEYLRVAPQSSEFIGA
# Excerpt: NCI-H1975 (harboring EGFR heterozygous L858R-T790M mutations) and NCI-H3255 (harboring EGFR heterozygous L858R mutation) were purchased from ATCC and NCI, respectively. NCI-H1975+CS (harboring EGFR heterozygous L858R-T790M-C797S mutations) was generated using CRISPR technology to introduce the additional C797S mutation by Horizon Discovery. A431 (harboring EGFR wildtype) was purchased from ATCC. RPMI 1640 no-phenol red medium and fetal bovine serum (FBS) were purchased from Gibco (Grand Island, NY, USA). Cell culture flasks and 384-well microplates were acquired from VWR (Radnor, PA, USA). Phosphorylated (pY1068) EGFR and Total EGFR (using L858R-specific detection antibody and pan-EGFR antibody for EGFR mutant cell lines and EGFR wild-type cell lines, respectively) HTRF assay kits were purchased from Cisbio (Bedford, MA, USA).
# Degradation of EGFR protein containing L858R mutation or wild-type was determined based on quantification of FRET signal using a Total EGFR (L858R-specific or pan-EGFR detecting) HTRF assay kit. Phospho-EGFR (pEGFR) inhibition was determined based on quantification of FRET signal using a pY1068 EGFR HTRF assay kit. In separate assay plates, test compounds were added to the 384-well plate from a top concentration of 10 μM with 11 points, half log titration in duplicates. For each assay, 12.5 uL of cells suspended in assay media (RPMI 1640 no-phenol red medium+10% FBS) at cell densities indicated for each cell line in Table 8 below were dispensed using a multi-channel pipette to 384-well low volume white HTRF microplates containing a duplicate concentration range of test compounds and DMSO controls. The plates were kept at 37° C. with 5% CO2 for 6 hours and then incubated with either phospho EGFR or Total EGFR HTRF detection antibodies according to the cell line and EGFR mutant being assayed. Cells treated in the absence of the test compound were the negative control. Positive control was set by wells containing all reagents but no cells. FRET signal was acquired on EnVision™ Multilabel Reader (PerkinElmer, Santa Clara, CA, USA). Compound concentration that achieves 50% degradation and inhibition was reported as DC50 and IC50, respectively.
# [3] = molecular target: T2, EGFR L858R-T790M (Homo sapiens, UniProt P00533, L858R/T790M); assay: EGFR degradation, Total EGFR (L858R-specific) HTRF, NCI-H1975; details: NCI-H1975 cells, 6 hours, Total EGFR HTRF, read-out: H1975 EGFR DC50
# T2 construct: NCI-H1975 (harboring EGFR heterozygous L858R-T790M mutations); host or cells: NCI-H1975
# T2 sequence (P00533 25-1210 T790M/L858R): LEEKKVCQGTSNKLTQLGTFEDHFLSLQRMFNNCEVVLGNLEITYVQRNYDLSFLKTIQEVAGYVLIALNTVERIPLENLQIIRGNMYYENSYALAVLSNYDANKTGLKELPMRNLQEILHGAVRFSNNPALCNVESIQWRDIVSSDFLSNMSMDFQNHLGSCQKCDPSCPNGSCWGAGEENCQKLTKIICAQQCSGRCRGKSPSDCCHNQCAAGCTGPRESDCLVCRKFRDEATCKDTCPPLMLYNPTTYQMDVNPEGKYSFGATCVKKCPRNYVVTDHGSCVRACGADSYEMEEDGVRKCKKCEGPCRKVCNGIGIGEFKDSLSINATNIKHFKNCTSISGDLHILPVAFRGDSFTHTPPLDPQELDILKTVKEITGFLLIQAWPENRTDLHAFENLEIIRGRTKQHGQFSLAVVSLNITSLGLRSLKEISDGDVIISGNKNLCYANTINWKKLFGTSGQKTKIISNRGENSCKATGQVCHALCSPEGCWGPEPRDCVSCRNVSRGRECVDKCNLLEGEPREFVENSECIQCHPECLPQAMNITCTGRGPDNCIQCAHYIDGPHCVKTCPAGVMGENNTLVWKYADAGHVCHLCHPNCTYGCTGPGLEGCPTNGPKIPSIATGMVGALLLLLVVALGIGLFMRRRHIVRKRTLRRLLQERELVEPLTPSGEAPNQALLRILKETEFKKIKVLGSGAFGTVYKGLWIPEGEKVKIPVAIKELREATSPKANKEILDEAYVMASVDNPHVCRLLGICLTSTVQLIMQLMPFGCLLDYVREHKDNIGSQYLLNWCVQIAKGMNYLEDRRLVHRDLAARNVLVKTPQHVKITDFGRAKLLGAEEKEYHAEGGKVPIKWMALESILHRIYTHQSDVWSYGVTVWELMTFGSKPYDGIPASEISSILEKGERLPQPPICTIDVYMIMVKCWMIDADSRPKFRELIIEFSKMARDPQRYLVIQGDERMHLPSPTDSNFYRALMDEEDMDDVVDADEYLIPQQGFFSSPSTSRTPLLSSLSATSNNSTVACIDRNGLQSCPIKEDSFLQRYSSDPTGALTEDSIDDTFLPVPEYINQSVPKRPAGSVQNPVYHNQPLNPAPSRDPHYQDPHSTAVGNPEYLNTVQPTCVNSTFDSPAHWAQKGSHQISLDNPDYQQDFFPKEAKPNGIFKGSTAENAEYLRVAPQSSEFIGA
# In short: as §1
# [4] = Table 9A, NCI-H1975+CS cells, read-out: H1975+ CS EGFR DC50
# [5] = Table 9B, NCI-H1975 C797S clone, read-out: H1975 C797S clone EGFR DC50
structure (smiles),measurement,setting,value
"O=C1CCC(Nc2ccc(C3CCN(CC(=O)N4CCC(Oc5ccc(-c6cc(F)c7c(c6)C(=O)N(C(C(=O)Nc6nccs6)c6ncn8c6CCC8)C7)cc5)CC4)CC3)c(F)c2)C(=O)N1 (centres unmarked) [Compound 35, 2-(6,7-dihydro-5H-pyrrolo[1,2-c]imidazol-1-yl)-2-(6-(4-((1-(2-(4-(4-((2,6-dioxopiperidin-3-yl)amino)-2-fluorophenyl)piperidin-1-yl)acetyl)piperidin-4-yl)oxy)phenyl)-4-fluoro-1-oxoisoindolin-2-yl)-N-(thiazol-2-yl)acetamide]",DC50,[1]; Table 9A,< 50 nM
same,DC50,[2]; [4],< 50 nM
same,DC50,[3]; Table 9A,< 50 nM
"O=C1CCC(Nc2ccc(C3CCN(CC(=O)N4CCN(c5ccc(-c6cc(F)c7c(c6)C(=O)N(C(C(=O)Nc6nccs6)c6ncn8c6CCC8)C7)cc5)CC4)CC3)c(C(F)F)c2)C(=O)N1 (centres unmarked) [Compound 15, 2-[6-[4-[4-[2-[4-[2-(difluoromethyl)-4-[(2,6-dioxo-3-piperidyl)amino]phenyl]-1-piperidyl]acetyl]piperazin-1-yl]phenyl]-4-fluoro-1-oxo-isoindolin-2-yl]-2-(6,7-dihydro-5H-pyrrolo[1,2-c]imidazol-1-yl)-N-thiazol-2-yl-acetamide]",DC50,[1]; Table 9A,< 50 nM
same,DC50,[2]; [4],< 50 nM
same,DC50,[3]; Table 9A,< 50 nM
"O=C1CC[C@H](Nc2ccc(C3CCN(CC(=O)N4CCC(Oc5ccc(-c6cc(F)c7c(c6)C(=O)N(C(C(=O)Nc6nccs6)c6ncn8c6CCC8)C7)cc5)CC4)CC3)cc2)C(=O)N1 (stereo partly drawn) [Compound 32, 2-(6,7-dihydro-5H-pyrrolo[1,2-c]imidazol-1-yl)-2-[6-[4-[[1-[2-[4-[4-[[(3S)-2,6-dioxo-3-piperidyl]amino]phenyl]-1-piperidyl]acetyl]-4-piperidyl]oxy]phenyl]-4-fluoro-1-oxo-isoindolin-2-yl]-N-thiazol-2-yl-acetamide]",DC50,[1]; Table 9A,< 50 nM
same,DC50,[2]; [4],< 50 nM
same,DC50,[3]; Table 9A,< 50 nM
"O=C1CCC(Nc2ccc(C3CCN(CC(=O)N4CCN(c5ccc(-c6cc(F)c7c(c6)C(=O)N(C(C(=O)Nc6ccccn6)c6ncn8c6CCC8)C7)cc5)CC4)CC3)cc2)C(=O)N1 (centres unmarked) [Compound 19, 2-(6,7-dihydro-5H-pyrrolo[1,2-c]imidazol-1-yl)-2-(6-(4-(4-(2-(4-(4-((2,6-dioxopiperidin-3-yl)amino)phenyl)piperidin-1-yl)acetyl)piperazin-1-yl)phenyl)-4-fluoro-1-oxoisoindolin-2-yl)-N-(pyridin-2-yl)acetamide]",DC50,[1]; Table 9A,< 50 nM
same,DC50,[2]; [4],< 50 nM
same,DC50,[3]; Table 9A,50 to 150 nM
"N#Cc1cc(NC2CCC(=O)NC2=O)ccc1C1CCN(CC(=O)N2CCN(c3ccc(-c4cc(F)c5c(c4)C(=O)N(C(C(=O)Nc4nccs4)c4ncn6c4CCC6)C5)cc3)CC2)CC1 (centres unmarked) [Compound 14, 2-[6-[4-[4-[2-[4-[2-cyano-4-[(2,6-dioxo-3-piperidyl)amino]phenyl]-1-piperidyl]acetyl]piperazin-1-yl]phenyl]-4-fluoro-1-oxo-isoindolin-2-yl]-2-(6,7-dihydro-5H-pyrrolo[1,2-c]imidazol-1-yl)-N-thiazol-2-yl-acetamide]",DC50,[1]; Table 9A,< 50 nM
same,DC50,[2]; [4],< 50 nM
same,DC50,[3]; Table 9A,< 50 nM
"O=C1CC[C@H](Nc2ccc(C3CCN(CC(=O)N4CCN(Cc5ccc(-c6cc(F)c7c(c6)C(=O)N(C(C(=O)Nc6nccs6)c6ncn8c6CCC8)C7)cc5)CC4)CC3)c(F)c2)C(=O)N1 (stereo partly drawn) [Compound 58, 2-(6,7-dihydro-5H-pyrrolo[1,2-c]imidazol-1-yl)-2-[6-[4-[[4-[2-[4-[4-[[(3S)-2,6-dioxo-3-piperidyl]amino]-2-fluoro-phenyl]-1-piperidyl]acetyl]piperazin-1-yl]methyl]phenyl]-4-fluoro-1-oxo-isoindolin-2-yl]-N-thiazol-2-yl-acetamide]",DC50,[1]; Table 9A,< 50 nM
same,DC50,[2]; [4],< 50 nM
same,DC50,[3]; Table 9A,< 50 nM
"O=C1CCC(Nc2ccc(C3CCN(CC(=O)N4CCC(NC(=O)c5ccc(C#Cc6cc(F)c7c(c6)C(=O)N(C(C(=O)Nc6nccs6)c6ncn8c6CCC8)C7)cn5)CC4)CC3)cc2)C(=O)N1 (centres unmarked) [Compound 97, 5-((2-(1-(6,7-dihydro-5H-pyrrolo[1,2-c]imidazol-1-yl)-2-oxo-2-(thiazol-2-ylamino)ethyl)-7-fluoro-3-oxoisoindolin-5-yl)ethynyl)-N-(1-(2-(4-(4-((2,6-dioxopiperidin-3-yl)amino)phenyl)piperidin-1-yl)acetyl)piperidin-4-yl)picolinamide]",DC50,[1]; Table 9B,< 50 nM
same,DC50,[2]; [5],< 50 nM
same,DC50,[3]; Table 9B,< 50 nM
"O=C1CC[C@H](Nc2ccc(C3CCN(CC(=O)N4CCN(c5ccc(-c6cc(F)c7c(c6)C(=O)N(C(C(=O)Nc6nccs6)c6ncn8c6CCC8)C7)cc5)CC4)CC3)cc2)C(=O)N1 (stereo partly drawn) [Compound 56, 2-(6,7-dihydro-5H-pyrrolo[1,2-c]imidazol-1-yl)-2-[6-[4-[4-[2-[4-[4-[[(3S)-2,6-dioxo-3-piperidyl]amino]phenyl]-1-piperidyl]acetyl]piperazin-1-yl]phenyl]-4-fluoro-1-oxo-isoindolin-2-yl]-N-thiazol-2-yl-acetamide]",DC50,[1]; Table 9A,< 50 nM
same,DC50,[2]; [4],< 50 nM
same,DC50,[3]; Table 9A,< 50 nM
"Cn1nc(N2CCC(=O)NC2=O)c2ccc(C3CCN(CC(=O)N4CCCN(c5ccc(-c6cc(F)c7c(c6)C(=O)N(C(C(=O)Nc6nccs6)c6ncn8c6CCC8)C7)cc5)CC4)CC3(F)F)cc21 (centres unmarked) [Compound 91, 2-(6,7-dihydro-5H-pyrrolo[1,2-c]imidazol-1-yl)-2-(6-(4-(4-(2-(4-(3-(2,4-dioxotetrahydropyrimidin-1(2H)-yl)-1-methyl-1H-indazol-6-yl)-3,3-difluoropiperidin-1-yl)acetyl)-1,4-diazepan-1-yl)phenyl)-4-fluoro-1-oxoisoindolin-2-yl)-N-(thiazol-2-yl)acetamide]",DC50,[2]; [5],50 to 150 nM
same,DC50,[3]; Table 9B,< 50 nM
"Cn1nc(N2CCC(=O)NC2=O)c2ccc(C3CCN(CC(=O)N4CC5(C4)CN(c4ccc(-c6ccc7cn(C(C(=O)Nc8nccs8)c8ncn9c8CCC9)nc7c6F)cn4)C5)CC3(F)F)cc21 (centres unmarked) [Compound 70, 2-(6,7-dihydro-5H-pyrrolo[1,2-c]imidazol-1-yl)-2-[6-[6-[2-[2-[4-[3-(2,4-dioxohexahydropyrimidin-1-yl)-1-methyl-indazol-6-yl]-3,3-difluoro-1-piperidyl]acetyl]-2,6-diazaspiro[3.3]heptan-6-yl]-3-pyridyl]-7-fluoro-indazol-2-yl]-N-thiazol-2-yl-acetamide]",DC50,[2]; [5],< 50 nM
same,DC50,[3]; Table 9B,< 50 nM
"Cn1nc(N2CCC(=O)NC2=O)c2ccc(N3CCN(CC(=O)N4CCN(c5ccc(-c6cc(F)c7c(c6)C(=O)N(C(C(=O)Nc6nccs6)c6ncn8c6CCC8)C7)cc5)CC4)CC3)cc21 (centres unmarked) [Compound 92, 2-(6,7-dihydro-5H-pyrrolo[1,2-c]imidazol-1-yl)-2-(6-(4-(4-(2-(4-(3-(2,4-dioxotetrahydropyrimidin-1(2H)-yl)-1-methyl-1H-indazol-6-yl)piperazin-1-yl)acetyl)piperazin-1-yl)phenyl)-4-fluoro-1-oxoisoindolin-2-yl)-N-(thiazol-2-yl)acetamide]",DC50,[2]; [5],< 50 nM
same,DC50,[3]; Table 9B,< 50 nM
"O=C1CC[C@H](Nc2ccc(C3CCN(CC(=O)N4CC5(C4)CN(c4ccc(-c6ccc7cn(C(C(=O)Nc8nccs8)c8ncn9c8CCC9)nc7c6F)cn4)C5)CC3)c(F)c2)C(=O)N1 (stereo partly drawn) [Compound 69, 2-(6,7-dihydro-5H-pyrrolo[1,2-c]imidazol-1-yl)-2-[6-[6-[2-[2-[4-[4-[[(3S)-2,6-dioxo-3-piperidyl]amino]-2-fluoro-phenyl]-1-piperidyl]acetyl]-2,6-diazaspiro[3.3]heptan-6-yl]-3-pyridyl]-7-fluoro-indazol-2-yl]-N-thiazol-2-yl-acetamide]",DC50,[2]; [5],< 50 nM
same,DC50,[3]; Table 9B,< 50 nM
